According to patent publication US10172796B2, “Use of umirolimus and its derivatives for treating cancer” (Manli International Ltd., priority 2012, dated 2019):
pIC50: −log10 of the molar value.

Columns and labels:
[1] = test system: BxPC-3/pancreatic; assay: CellTiter-Glo luminescent cell viability assay, BxPC-3; assay type: cell-based, human; conditions: 72 hours of in vitro culture
Protocol: (§1) Umirolimus was added to cultured cell lines derived from 9 types of human cancer. After 72 hours of in vitro culture, the 50% inhibitory concentration (IC50) of umirolimus on cell growth was measured using the CellTiter-Glo luminescent cell viability assay.

[2] = test system: SK-MES-1/lung; assay: CellTiter-Glo luminescent cell viability assay, SK-MES-1; assay type: cell-based, human; conditions: 72 hours of in vitro culture
Protocol: as §1

[3] = test system: A2780/ovarian; assay: CellTiter-Glo luminescent cell viability assay, A2780; assay type: cell-based, human; conditions: 72 hours of in vitro culture
Protocol: as §1

[4] = test system: K562/chronic myelogenous leukemia; assay: CellTiter-Glo luminescent cell viability assay, K562; assay type: cell-based, human; conditions: 72 hours of in vitro culture
Protocol: as §1

[5] = test system: MDA-MB-231/breast; assay: CellTiter-Glo luminescent cell viability assay, MDA-MB-231; assay type: cell-based, human; conditions: 72 hours of in vitro culture
Protocol: as §1

[6] = test system: 11 cell lines from 9 types of human cancers; assay: CellTiter-Glo cell viability assay, summary over the cell line panel; assay type: cell-based; conditions: summary for all 11 cell lines of Table 1
Protocol: as §1

[7] = test system: RPMI-8226/multiple myeloma; assay: CellTiter-Glo luminescent cell viability assay, RPMI-8226; assay type: cell-based, human; conditions: 72 hours of in vitro culture
Protocol: as §1

[8] = See J. Med. Chem. 2000, 43:2922-2928; cited from earlier work
[9] = test system: 10 human cancer cell lines; assay: Inhibition of cancer cell growth by umirolimus as compared to sirolimus and everolimus; assay type: cell-based; conditions: 8 out of the 10 cancer cell lines tested: A2780, SK-HEP-1, DLD-1, SNU-16, BxPC-3, 786-O, SK-MES-1, AZ-521; FIG. 1
Protocol: as §1
The IC50 for 3 “limus” drugs for inhibiting the growth of 10 human cancer cell is lines was measured using the CellTiter-Glo luminescent cell viability assay as described in Example 1. The ten exemplary human cancer cell lines tested were SK-MES-1 (lung cancer), BxPC-3 (pancreatic cancer), AZ-521 (gastric cancer), SNU-16 (gastric cancer), SK-HEP-1 (liver cancer), A2780 (ovarian cancer), MDA-MB-231 (breast cancer), DLD-1 (colorectal cancer), DU-145 (prostate cancer) and 786-O (kidney cancer).

[10] = test system: SNU-16/gastric; assay: CellTiter-Glo luminescent cell viability assay, SNU-16; assay type: cell-based, human; conditions: 72 hours of in vitro culture
Protocol: as §1

[11] = test system: SW620/colorectal; assay: CellTiter-Glo luminescent cell viability assay, SW620; assay type: cell-based, human; conditions: 72 hours of in vitro culture
Protocol: as §1

[12] = test system: SK-HEP-1/liver; assay: CellTiter-Glo luminescent cell viability assay, SK-HEP-1; assay type: cell-based, human; conditions: 72 hours of in vitro culture
Protocol: as §1

[13] = test system: AZ-521/gastric; assay: CellTiter-Glo luminescent cell viability assay, AZ-521; assay type: cell-based, human; conditions: 72 hours of in vitro culture
Protocol: as §1

[14] = test system: NCI-H460/lung; assay: CellTiter-Glo luminescent cell viability assay, NCI-H460; assay type: cell-based, human; conditions: 72 hours of in vitro culture
Protocol: as §1

Question: With `CCOCCO[C@@H]1CC[C@@H](C[C@@H](C)[C@@H]2CC(=O)[C@H](C)/C=C(\C)[C@@H](O)[C@@H](OC)C(=O)[C@H](C)C[C@H](C)/C=C/C=C/C=C(\C)[C@@H](OC)C[C@@H]3CC[C@@H](C)[C@@](O)(O3)C(=O)C(=O)N3CCCC[C@H]3C(=O)O2)C[C@H]1OC` [umirolimus] as the compound, how does the pIC50 [1] read?
Answer: 5.51

Question: What about the Maximum inhibition [1] of the same compound?
Answer: 77.24%

Question: And the pIC50 [2]?
Answer: 5.08

Question: What about the Maximum inhibition [2] of the same compound?
Answer: 96.57%

Question: What about the pIC50 [3] of the same compound?
Answer: 5.14

Question: And the Maximum inhibition [3]?
Answer: 100.19%

Question: And the pIC50 [4]?
Answer: 5.10

Question: And the Maximum inhibition [4]?
Answer: 98.49%

Question: What about the pIC50 [5] of the same compound?
Answer: 5.02

Question: What about the Maximum inhibition [5] of the same compound?
Answer: 99.23%

Question: And the pIC50 [6]?
Answer: > 5.00

Question: And the pIC50 [7]?
Answer: 5.17

Question: What about the Maximum inhibition [7] of the same compound?
Answer: 99.26%

Question: And the “lipophilicity as compared to sirolimus and everolimus” value [8]?
Answer: 10 times

Question: And the “IC50 compared to sirolimus and everolimus” value [9]?
Answer: superior to that of sirolimus and everolimus

Question: What about the pIC50 [10] of the same compound?
Answer: 5.94

Question: What about the Maximum inhibition [10] of the same compound?
Answer: 99.75%

Question: And the pIC50 [11]?
Answer: 5.08

Question: What about the Maximum inhibition [11] of the same compound?
Answer: 55.69%

Question: What about the pIC50 [12] of the same compound?
Answer: 5.11

Question: What about the Maximum inhibition [12] of the same compound?
Answer: 99.97%

Question: What about the pIC50 [13] of the same compound?
Answer: 5.37

Question: And the Maximum inhibition [13]?
Answer: 99.88%

Question: And the pIC50 [14]?
Answer: 5.15

Question: What about the Maximum inhibition [14] of the same compound?
Answer: 88.99%
